{"source": "patent US20120115896A1", "about": "“ISOGENIC HUMAN CELL LINES COMPRISING MUTATED CANCER ALLELES AND PROCESS USING THE CELL LINES” (priority 2008, published 2012)", "key": {"[1]": {"test_system": "hTERT-HME1 WT, PIK3CA E545K and H1047R KI cells", "assay": "CFSE time-course of cell divisions by flow cytometry", "assay_type": "cell-based, human", "settings": "everolimus 500 nM, 7 days", "experimental": "(A) CFSE-labelled cells were analyzed by flow cytometry at the indicated time-points (top panels). The maximum fluorescence intensity for all samples was recorded at day 0 (depicted in filled black). […] (B) Cells of the indicated genotype were incubated with everolimus 500 nM for 48 h, after which cell cycle was analyzed by flow cytometry. No increase of the subG1 apoptotic fraction of cells was observed upon treatment. Representative data from 3 independent experiments are shown.\nFor time-course experiments, on the initial day hTERT-HME1 cells were labelled with 3 μM CFSE (5-(and -6)-carboxyfluorescein diacetate, succinimidyl ester, Invitrogen C1157, Milan, Italy) in PBS in the dark for 30 minutes. After washing and recording baseline fluorescence, cells were plated in media containing 1% FBS and 2 ng/mL EGF, and treatment with everolimus was initiated, replenishing the drug on a daily basis. For cell cycle analysis, trypsinized cells were washed with PBS and cell nuclei DNA were stained with propidium iodide (PI) for at least 120 minutes using a commercial kit (DNA con 3, Consul T.S., Orbassano, Italy).\nAll fluorescence levels were detected by flow cytometry on a FACSCalibur (Becton Dickinson, Milan, Italy) and analyzed using CellQuest software. The number of events collected for each sample varied between 15,000 and 50,000. After doublets exclusion, an extended analysis of the DNA content and calculations of the percentage of cells in each phase of the cell cycle were performed on ModFit Lt software (Verity Software House, Topsham, Me.)."}, "[2]": {"test_system": "phosphorylation of p70S6K, RpS6, AKT and MAPK in hTERT-HME1 WT and KI cells", "assay": "Biochemical effects of everolimus: immunoblot and ELISA of phospho-proteins", "assay_type": "cell-based, human", "settings": "for levels of phospho-MAPK: FIG. 16E", "experimental": "(A, E) After 30 minutes' treatment with everolimus 500 nM, cells of the indicated genotype were lysed and immunoblotted with the anti-phospho-P70S6K, totalP70S6K, phospho-MAPK and total MAPK antibodies (B, C, D) The same lysates were also used for ELISA measurements of total AKT, phosphoAKT (Thr308), phosphoAKT (Ser473), total RpS6 and phosphoRpS6 levels. Numbers indicate the ratio of phosphorylated protein related to total protein levels and are normalized respect to the untreated (NT) hTERT-HME1 WT cells. DKI, Double Knock-In cells carrying both PIK3CA H1047R and KRAS G13D alleles.\nSDS PAGE was performed using Invitrogen Precasted gels (Invitrogen Carlsbad, Calif.); western blotting transfer onto Hybond-C Extra membranes (Amersham, Amersham Biosciences, Uppsala, Sweden) was done following standard methods. The primary antibodies used for immunoblotting were: Anti-AKT (Cell Signaling, Technology, Danvers, Mass.); Anti-phospho-AKT S473 (Cell Signaling, Technology, Danvers, Mass.); Anti-Actin and Anti-Vinculin (Sigma-Aldrich, St. Louis, Mo.); Phospho-p44/42 Map kinase (Thr202/Tyr204) (Cell Signaling, Technology, Danvers, Mass.); Anti-phospho-EGFR Receptor (Tyr 1068) and Anti EGFR Receptor (Cell Signaling Technology, Danvers, Mass.)."}, "[3]": {"test_system": "hTERT-HME1 cells carrying PIK3CA (E545K and H1047R) KI", "assay": "Drug assay: cell viability by ATP content (96 h) and Hoechst/propidium iodide staining, KI versus parental cells; ΔKI pharmarray analysis", "settings": "hTERT-HME1"}, "[4]": {"test_system": "panel of cell lines derived from glioblastoma, breast, ovarian, prostate, endometrial and colorectal carcinomas carrying genetic alterations in PIK3CA or PTEN", "assay": "Antiproliferative effects of everolimus on a panel of cancer cell lines", "assay_type": "cell-based, human", "settings": "FIG. 7A", "from_the_text": "The present pharmacogenomic analysis of non-transformed cells carrying cancer alleles point to a relationship between the occurrence of PIK3CA mutations and sensitivity to everolimus. The present inventors next assessed whether and to what extent these findings might be applicable to human cancer cells in which mutations in the PIK3CA pathway naturally occur alongside with additional genetic alterations. To this end a panel of cell lines derived from glioblastoma, breast, ovarian, prostate, endometrial and colorectal carcinomas which are known to carry genetic alterations in PIK3CA or PTEN (FIG. 7) were treated with everolimus. […] Everolimus-resistant cells (such as HT-29, HCT 116 and DLD-1) carried mutations in both PIK3CA and KRAS/BRAF."}}, "data": [{"smiles": "CO[C@H]1C[C@@H]2CC[C@@H](C)[C@@](O)(O2)C(=O)C(=O)N2CCCC[C@H]2C(=O)O[C@H]([C@H](C)C[C@@H]2CC[C@@H](OCCO)[C@H](OC)C2)CC(=O)[C@H](C)/C=C(\\C)[C@@H](O)[C@@H](OC)C(=O)[C@H](C)C[C@H](C)/C=C/C=C/C=C/1C", "note": "[everolimus, Everolimus]", "values": [{"measurement": "slowing of cell growth (CFSE)", "setting": "[1]; PIK3CA E545K", "value": "less pronounced"}, {"measurement": "slowing of cell growth (CFSE)", "setting": "[1]; PIK3CA H1047R", "value": "particularly evident"}, {"measurement": "slowing of cell growth (CFSE)", "setting": "[1]; WT cells", "value": "only minimal"}, {"measurement": "levels of phospho-MAPK", "setting": "[2]; KRAS G13D mutated cells", "value": "decreased"}, {"measurement": "levels of phospho-MAPK", "setting": "[2]; WT cells and PIK3CA H1047R mutated cells", "value": "essentially unchanged"}, {"measurement": "phospho-AKT", "setting": "[2]; all genotypes, everolimus 500 nM, 30 minutes, FIG. 16C, D", "value": "increase"}, {"measurement": "p70S6K phosphorylation", "setting": "[2]; everolimus 500 nM, 30 minutes, FIG. 16A", "value": "abrogated"}, {"measurement": "activated phospho-RpS6 levels", "setting": "[2]; everolimus 500 nM, 30 minutes, FIG. 16B", "value": "decrease"}, {"measurement": "pharmarray: differential response of PIK3CA mutated cells versus WT", "setting": "[3]; FIG. 5G", "value": "affecting preferentially"}, {"measurement": "antiproliferative effect on PIK3CA KI clones versus WT", "setting": "[3]; wide range of concentrations, FIG. 6A", "value": "significant antiproliferative effect only in mutated cells"}, {"measurement": "response of tumor cells with PIK3CA pathway alterations but no mutation in KRAS/BRAF", "setting": "[4]", "value": "sensitive"}, {"measurement": "response of tumor cells carrying mutations in both PIK3CA and KRAS/BRAF", "setting": "[4]; such as HT-29, HCT 116 and DLD-1", "value": "resistant"}]}]}
